Source: article PMC11822212, “High-throughput screening identifies Aurora kinase B as a critical therapeutic target for Merkel cell carcinoma” (Nature Communications, 2025)
Like-named read-outs stand apart in the source and are kept apart here.

Columns and labels:
MCC13 cells (VN-MCC) = experiment: qHTS cell viability (CellTiter-Glo, 72 h; primary and follow-up small molecule screen); assay type: cell-based, human
[1] = tested on: VP-MCC cell lines (WAGA, MKL-1, MKL-2); experiment: qHTS cell viability, VP-MCC cell lines as a group (mean AUC, VP.MCC.avg); assay type: cell-based, human
MCC26 cells (VN-MCC) = experiment: qHTS cell viability (CellTiter-Glo, 72 h; primary and follow-up small molecule screen); assay type: cell-based, human
CRL-7250 cells = experiment: qHTS cell viability (CellTiter-Glo, 72 h; primary screen), control cell line; assay type: cell-based
MKL-1 cells (VP-MCC) = experiment: qHTS cell viability (CellTiter-Glo, 72 h; primary and follow-up small molecule screen); assay type: cell-based, human
HACAT cells = experiment: qHTS cell viability (CellTiter-Glo, 72 h; primary screen), control cell line; assay type: cell-based, human
[2] = tested on: control cell lines (HACAT, HEK293T, CRL-7250, NIH-3T3); experiment: qHTS cell viability, control cell lines as a group (mean AUC, Control.avg); assay type: cell-based
[3] = tested on: VN-MCC cell lines (MCC13, MCC26, UISO); experiment: qHTS cell viability, VN-MCC cell lines as a group (mean AUC, VN.MCC.avg); assay type: cell-based, human
HEK293T cells = experiment: qHTS cell viability (CellTiter-Glo, 72 h; primary screen), control cell line; assay type: cell-based, human
[4] = tested on: six MCC cell lines and four control cell lines; experiment: qHTS cell viability, all 10 cell lines screened; assay type: cell-based
NIH-3T3 cells = experiment: qHTS cell viability (CellTiter-Glo, 72 h; primary screen), control cell line; assay type: cell-based, mouse
[5] = tested on: MCC cell lines (WAGA, MKL-1, MKL-2, MCC13, MCC26, UISO); experiment: qHTS cell viability, all six MCC cell lines as a group (mean AUC, MCC.avg); assay type: cell-based, human
MKL-2 cells (VP-MCC) = experiment: qHTS cell viability (CellTiter-Glo, 72 h; primary and follow-up small molecule screen); assay type: cell-based, human
WAGA cells (VP-MCC) = experiment: as above; assay type: cell-based, human
UISO cells (VN-MCC) = experiment: as above; assay type: cell-based, human

CN(C)C(=O)Nc1ccc(Cl)c(Cl)c1 [Diuron]
Area under the dose-response curve (AUC) MCC13 Replicate 1 (MCC13 cells (VN-MCC)): 429.4
Area under the dose-response curve (AUC) MCC13 Replicate 2 (MCC13 cells (VN-MCC)): 471.6
Area under the dose-response curve (AUC) MCC13 Replicate 3 (MCC13 cells (VN-MCC)): 443.0
MCC13_AUC (MCC13 cells (VN-MCC)): 486.707
Control-VP-MCC [1]: 283.207
VP-MCC_Avg_AUC [1]: 194.692
Area under the dose-response curve (AUC) MCC26 Replicate 1 (MCC26 cells (VN-MCC)): 419.4
Area under the dose-response curve (AUC) MCC26 Replicate 2 (MCC26 cells (VN-MCC)): 420.5
Area under the dose-response curve (AUC) MCC26 Replicate 3 (MCC26 cells (VN-MCC)): 426.9
MCC26_AUC (MCC26 cells (VN-MCC)): 462.009
CRL7250_AUC (CRL-7250 cells): 483.042
Area under the dose-response curve (AUC) MKL-1 Replicate 1 (MKL-1 cells (VP-MCC)): 459.9
Area under the dose-response curve (AUC) MKL-1 Replicate 2 (MKL-1 cells (VP-MCC)): 477.0
Area under the dose-response curve (AUC) MKL-1 Replicate 3 (MKL-1 cells (VP-MCC)): 426.1
MKL1_AUC (MKL-1 cells (VP-MCC)): 165.013
HACAT_AUC (HACAT cells): 457.965
Control_Avg_AUC [2]: 477.9
Control-VN-MCC [3]: 17.4511
VN-MCC_Avg_AUC [3]: 460.449
HEK293T_AUC (HEK293T cells): 497.019
Control-MCC [4]: 150.329
NIH3T3_AUC (NIH-3T3 cells): 473.572
MCC_Avg_AUC [5]: 327.57
Area under the dose-response curve (AUC) MKL-2 Replicate 1 (MKL-2 cells (VP-MCC)): 465.6
Area under the dose-response curve (AUC) MKL-2 Replicate 2 (MKL-2 cells (VP-MCC)): 447.9
Area under the dose-response curve (AUC) MKL-2 Replicate 3 (MKL-2 cells (VP-MCC)): 414.0
MKL2_AUC (MKL-2 cells (VP-MCC)): 290.674
Area under the dose-response curve (AUC) WAGA Replicate 1 (WAGA cells (VP-MCC)): 487.4
Area under the dose-response curve (AUC) WAGA Replicate 2 (WAGA cells (VP-MCC)): 506.5
Area under the dose-response curve (AUC) WAGA Replicate 3 (WAGA cells (VP-MCC)): 435.9
WAGA_AUC (WAGA cells (VP-MCC)): 128.39
Area under the dose-response curve (AUC) UISO Replicate 1 (UISO cells (VN-MCC)): 424.2
Area under the dose-response curve (AUC) UISO Replicate 2 (UISO cells (VN-MCC)): 442.5
Area under the dose-response curve (AUC) UISO Replicate 3 (UISO cells (VN-MCC)): 396.8
UISO_AUC (UISO cells (VN-MCC)): 432.63

CC1=C(C)C(=O)C(CCCCC#CCCCC#CCO)=C(C)C1=O [Docebenone]
MCC13_AUC (MCC13 cells (VN-MCC); NPC library, qHTS dose-response AUC, MCC13): 444.208
MCC13_AUC (MCC13 cells (VN-MCC); area under the dose-response curve, MCC13 cells, AUC<450 = reduced viability): 444.208
VP-MCC_Avg_AUC ([1]; NPC library, mean AUC of VP-MCC cell lines): 416.945
Control-VP-MCC ([1]; NPC library, therapeutic window: Control avg AUC minus VP-MCC avg AUC): 53.5349
MCC26_AUC (MCC26 cells (VN-MCC); NPC library, qHTS dose-response AUC, MCC26): 429.759
MCC26_AUC (MCC26 cells (VN-MCC); area under the dose-response curve, MCC26 cells, AUC<450 = reduced viability): 429.759
CRL7250_AUC (CRL-7250 cells; NPC library, qHTS dose-response AUC, CRL7250 control): 490.119
CRL7250_AUC (CRL-7250 cells; area under the dose-response curve, CRL7250 control cells, AUC<450 = reduced viability): 490.119
MKL1_AUC (MKL-1 cells (VP-MCC); NPC library, qHTS dose-response AUC, MKL1): 419.228
MKL1_AUC (MKL-1 cells (VP-MCC); {}): 419.228
HACAT_AUC (HACAT cells; NPC library, qHTS dose-response AUC, HACAT control): 486.31
HACAT_AUC (HACAT cells; area under the dose-response curve, HACAT control cells, AUC<450 = reduced viability): 486.31
Control_Avg_AUC ([2]; NPC library, mean AUC of control cell lines): 470.48
VN-MCC_Avg_AUC ([3]; NPC library, mean AUC of VN-MCC cell lines): 435.96
Control-VN-MCC ([3]; NPC library, therapeutic window: Control avg AUC minus VN-MCC avg AUC): 34.5201
HEK293T_AUC (HEK293T cells; NPC library, qHTS dose-response AUC, HEK293T control): 450.348
HEK293T_AUC (HEK293T cells; area under the dose-response curve, HEK293T control cells, AUC<450 = reduced viability): 450.348
Control-MCC ([4]; NPC library, therapeutic window: Control avg AUC minus MCC avg AUC): 44.0275
NIH3T3_AUC (NIH-3T3 cells; NPC library, qHTS dose-response AUC, NIH3T3 control): 455.144
NIH3T3_AUC (NIH-3T3 cells; area under the dose-response curve, NIH3T3 control cells, AUC<450 = reduced viability): 455.144
MCC_Avg_AUC ([5]; NPC library, mean AUC of six MCC cell lines): 426.453
MKL2_AUC (MKL-2 cells (VP-MCC); NPC library, qHTS dose-response AUC, MKL2): 406.862
MKL2_AUC (MKL-2 cells (VP-MCC); area under the dose-response curve, MKL-2 cells, AUC<450 = reduced viability): 406.862
WAGA_AUC (WAGA cells (VP-MCC); NPC library, qHTS dose-response AUC, WAGA): 424.745
WAGA_AUC (WAGA cells (VP-MCC); area under the dose-response curve, WAGA cells, AUC<450 = reduced viability): 424.745
UISO_AUC (UISO cells (VN-MCC); NPC library, qHTS dose-response AUC, UISO): 433.913
UISO_AUC (UISO cells (VN-MCC); area under the dose-response curve, UISO cells, AUC<450 = reduced viability): 433.913

CCCCCCCCCCCC[N+](C)(C)CCOc1ccccc1 [Domiphen bromide]
MCC13_AUC (MCC13 cells (VN-MCC)): 479.965
Control-VP-MCC [1]: 75.5464
VP-MCC_Avg_AUC [1]: 351.479
MCC26_AUC (MCC26 cells (VN-MCC)): 403.074
CRL7250_AUC (CRL-7250 cells): 449.796
MKL1_AUC (MKL-1 cells (VP-MCC)): 361.63
HACAT_AUC (HACAT cells): 409.601
Control_Avg_AUC [2]: 427.025
Control-VN-MCC [3]: 9.236
VN-MCC_Avg_AUC [3]: 417.789
HEK293T_AUC (HEK293T cells): 413.225
Control-MCC [4]: 42.3914
NIH3T3_AUC (NIH-3T3 cells): 435.478
MCC_Avg_AUC [5]: 384.634
MKL2_AUC (MKL-2 cells (VP-MCC)): 321.555
WAGA_AUC (WAGA cells (VP-MCC)): 371.251
UISO_AUC (UISO cells (VN-MCC)): 370.326
